Test systems include COLO 205 colon; SK-OV-3 ovarian; PC-3 prostate; SNB-19 CNS; K-562 leukemia; TK-10 renal; OVCAR-4 ovarian; UACC-257 melanoma; DMS 273 small cell lung; LXFL 529 NSCLC.
Holding throughout (experiment): NCI tumour cell line growth inhibition, 48 h

Where “and” joins values, the source holds several entries; their conditions need not be identical. Equal values may be shown once.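 1) Cells in 96-well plates. 2) Compound, 48 h, 5 concentrations. 3) Linear interpolation between surrounding doses. 4) Unreached endpoint = highest concentration. Abbreviation: GI50, concentration required for 50% inhibition of growth. TGI marks complete inhibition of growth.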

`Cn1cc(-c2ccc3c(c2)ncn3-c2cc(NS(=O)(=O)C3CC3)cc(-c3ccc(F)cc3F)c2)cn1`: the GI50 is 24.8 µM in the assay with COLO 205 colon; 10.2 µM in the assay with SK-OV-3 ovarian; 5.97 µM with PC-3 prostate; 9.46 µM with SNB-19 CNS; 4.31 µM in the assay with K-562 leukemia; 2.73 µM in the assay with TK-10 renal. Also, the GI50 in the assay on OVCAR-4 ovarian was 3.45 µM; in the assay on UACC-257 melanoma, 27.5 µM. In addition, the TGI in the assay with COLO 205 colon was over 100 µM; in the assay on SK-OV-3 ovarian, over 100 µM; with PC-3 prostate, over 100 µM; with SNB-19 CNS it was over 100 µM; in the assay with K-562 leukemia, 72.1 µM; in the assay with TK-10 renal it was 72.7 µM. The TGI in the assay on OVCAR-4 ovarian and with UACC-257 melanoma was over 100 µM each time.

Turning to `N=C(N)SCc1ccc(Cl)c2ccccc12` (tested in a mixture with another compound), the TGI in the assay with COLO 205 colon is 23.9 µM and 19.9 µM; in the assay with SK-OV-3 ovarian, 25.9 µM and 28.9 µM; in the assay on PC-3 prostate, 24.3 µM and 25.3 µM; in the assay with SNB-19 CNS, 28.4 µM and 31.6 µM; in the assay with K-562 leukemia it was 19.4 µM and 10.1 µM; in the assay on TK-10 renal it was 20.9 µM and 19.7 µM. The TGI in the assay with OVCAR-4 ovarian was 15.9 µM and 24.9 µM; with UACC-257 melanoma, 13.8 µM and 12.9 µM.

Take `N#C[Se]CCN1C(=O)c2ccccc2C1=O`: the GI50 in the assay with COLO 205 colon was 3.07 µM; with SK-OV-3 ovarian, 3.46 µM; in the assay on PC-3 prostate, 1.74 µM; in the assay with SNB-19 CNS it was 2.41 µM; in the assay with K-562 leukemia it was 2.35 µM; in the assay with TK-10 renal, 2.13 µM. Besides, the results for the GI50 in the assay with OVCAR-4 ovarian and in the assay on UACC-257 melanoma were 4.17 µM and 2.51 µM, respectively. Moreover, the TGI in the assay with COLO 205 colon stood at 9.05 µM; in the assay with SK-OV-3 ovarian, 8.72 µM; in the assay on PC-3 prostate, 8.27 µM; in the assay on SNB-19 CNS, 8.66 µM; with K-562 leukemia, 15.5 µM; with TK-10 renal, 6.3 µM. In addition, the TGI in the assay on OVCAR-4 ovarian was found to be 23.9 µM; in the assay on UACC-257 melanoma it was 11 µM.

Turning to `CN(C)CCNC(=O)c1cccc2c1nc(-c1cccnc1)c1ccccc12`, the TGI worked out at 16.4 µM in the assay with COLO 205 colon; 31.2 µM in the assay with SK-OV-3 ovarian; 36.8 µM in the assay with SNB-19 CNS; 65.4 µM with K-562 leukemia; 14.2 µM in the assay on DMS 273 small cell lung; 9.74 µM with TK-10 renal. Also, the TGI with OVCAR-4 ovarian turned out to be 18.4 µM; in the assay with UACC-257 melanoma it was 16.1 µM.

With `CC(C)CCCC(C)C1CCC2C3CC([N+](=O)[O-])=C4CC(O)CCC4(C)C3CCC12C` (stereo not drawn), the TGI in the assay on COLO 205 colon worked out at 45.7 µM; in the assay on K-562 leukemia, 36.8 µM; in the assay on LXFL 529 NSCLC, 32.9 µM; in the assay on DMS 273 small cell lung it was 27.2 µM; in the assay with TK-10 renal it was 39.6 µM; with OVCAR-4 ovarian, 43 µM. Moreover, the TGI in the assay with UACC-257 melanoma was determined as 37.5 µM.

For `Cc1ccccc1NC(=O)C1C(=O)N(c2ccccc2C)C(=O)/C1=N\NC(N)=O` (stereo not drawn), the TGI with COLO 205 colon, in the assay on SNB-19 CNS, in the assay on K-562 leukemia, in the assay with LXFL 529 NSCLC, with DMS 273 small cell lung and in the assay with TK-10 renal was over 100 µM in each case. For the same compound, the TGI with OVCAR-4 ovarian and in the assay on UACC-257 melanoma was over 100 µM in each case.

For the compound `COc1cc2c3c(n(CCCN)c(=O)c2cc1OC)-c1ccc(N)cc1C3=O`, the GI50 is 0.554 µM in the assay with COLO 205 colon; 2.52 µM with SK-OV-3 ovarian; 1.19 µM in the assay on PC-3 prostate; 1.27 µM in the assay on SNB-19 CNS; 0.155 µM in the assay on K-562 leukemia; 17.9 µM in the assay on TK-10 renal. Further, the GI50 is 1.57 µM with OVCAR-4 ovarian and 13.7 µM with UACC-257 melanoma. Moreover, the TGI in the assay on COLO 205 colon was 10.2 µM; with SK-OV-3 ovarian it was 17.9 µM; in the assay on PC-3 prostate it was 22.1 µM; in the assay with SNB-19 CNS, 16.3 µM; in the assay on K-562 leukemia, 12 µM; in the assay on TK-10 renal, 80.6 µM. Further, the TGI is 11.6 µM in the assay on OVCAR-4 ovarian and 50.3 µM in the assay with UACC-257 melanoma.

Consider `C=CCN(CC=C)Cc1c[nH]c2ccccc12`, for which the GI50 in the assay on COLO 205 colon is 18.4 µM; in the assay on SK-OV-3 ovarian it was over 100 µM; in the assay on PC-3 prostate, 32.4 µM; with SNB-19 CNS it was over 100 µM; in the assay with K-562 leukemia it was 50.2 µM; in the assay on TK-10 renal it was 6.93 µM. Also, the GI50 in the assay with OVCAR-4 ovarian was over 100 µM; with UACC-257 melanoma, 8.63 µM. The TGI in the assay with COLO 205 colon was over 100 µM; in the assay on SK-OV-3 ovarian it was over 100 µM; in the assay on PC-3 prostate, over 100 µM; in the assay on SNB-19 CNS, over 100 µM; in the assay with K-562 leukemia, over 100 µM; with TK-10 renal it was 38.7 µM. Moreover, the TGI is over 100 µM in the assay on OVCAR-4 ovarian and 28 µM with UACC-257 melanoma.

Consider `OC[C@H]1C[C@](O)(c2ccc(F)cc2)[C@@H](c2ccc(F)cc2)O1`, for which the GI50 in the assay with COLO 205 colon, in the assay with SK-OV-3 ovarian, with PC-3 prostate, in the assay with SNB-19 CNS, in the assay with K-562 leukemia and in the assay with TK-10 renal was over 100 µM each time. The GI50 with OVCAR-4 ovarian and in the assay with UACC-257 melanoma was over 100 µM in each case. Besides, the TGI in the assay on COLO 205 colon, in the assay on SK-OV-3 ovarian, in the assay on PC-3 prostate, in the assay with SNB-19 CNS, with K-562 leukemia and with TK-10 renal was over 100 µM each time. Also, the TGI in the assay with OVCAR-4 ovarian and in the assay with UACC-257 melanoma was over 100 µM in each case.

With `CN(c1ccccc1)c1c2ccccc2nc2[nH]c3ccccc3c12`, the GI50 was 3.45 µM with COLO 205 colon; 3.75 µM with SK-OV-3 ovarian; 2.78 µM in the assay with PC-3 prostate; 3.77 µM in the assay with SNB-19 CNS; 2.41 µM in the assay with K-562 leukemia; 1.26 µM with TK-10 renal. Moreover, the GI50 was 4.42 µM in the assay with OVCAR-4 ovarian and 6.54 µM in the assay on UACC-257 melanoma. Further, the TGI was 16.1 µM with COLO 205 colon; 14.1 µM in the assay with SK-OV-3 ovarian; 14.7 µM in the assay with PC-3 prostate; 15.5 µM in the assay with SNB-19 CNS; over 56.8 µM in the assay with K-562 leukemia; 3.5 µM in the assay on TK-10 renal. The figures for the TGI in the assay on OVCAR-4 ovarian and in the assay on UACC-257 melanoma were over 48.7 µM and 21.4 µM, respectively.

Regarding `Oc1c(Br)cc(Cl)cc1C(c1cc(Cl)cc(Br)c1O)C(Cl)(Cl)Cl`, the GI50 was 1.87 µM with COLO 205 colon; 2.94 µM in the assay with SK-OV-3 ovarian; 2.11 µM with PC-3 prostate; 3.13 µM in the assay on SNB-19 CNS; 0.832 µM with K-562 leukemia; 4.3 µM with TK-10 renal. Moreover, the values for the GI50 with OVCAR-4 ovarian and in the assay with UACC-257 melanoma were 2.86 µM and 2.33 µM, respectively. For the same compound, the TGI in the assay with COLO 205 colon came to 3.51 µM; in the assay on SK-OV-3 ovarian, 8.93 µM; with PC-3 prostate it was 8.21 µM; in the assay with SNB-19 CNS, 15.9 µM; in the assay with K-562 leukemia, 16.8 µM; with TK-10 renal, 13.3 µM. Besides, the TGI amounted to 13.1 µM with OVCAR-4 ovarian and 6.57 µM in the assay on UACC-257 melanoma.

The record behind these values is PubChem BioAssay (NCI).
